Test results taken from patent publication US20070166547A1, “Use of a layer consisting of hydrophobic linear, or two-dimensional polycyclic aromatics as a barrier layer or an encapsulation and electric components constructed with a layer of this type and comprising organic polymers” (priority 2003, published 2007).

Assays:
[1] = test system: metabolism of nitrogen oxide; assay: Morphine abstinence model: nitrites and nitrates NOX− in blood plasma, liver and brain; type: in vivo, rats Wistar; conditions: for Nitrites in blood plasma, Control + Compound / Nitrites in brain, Cortex of cerebrum, Control + Compound / Nitrites in brain, Hypothalamus, Control + Compound / Nitrites in brain, Mesencephalon, Control + Compound / Nitrites in liver, Control + Compound: compound alone 20.0 mg/kg intramuscularly; for Nitrites in blood plasma, Control + Morphine + compound / Nitrites in brain, Cortex of cerebrum, Control + Morphine + compound / Nitrites in brain, Hypothalamus, Control + Morphine + compound / Nitrites in brain, Mesencephalon, Control + Morphine + compound / Nitrites in liver, Control + Morphine + compound: morphinized rats then compound 20.0 mg/kg intramuscularly
Method: The experiments were carried out on rats in series of 7 animals on each compound according to the invention. Non-morphinized animal with not administered with compounds according to the invention were used as a control group. […] Then the rats were decapitated, the blood from somnolent arteries was collected in test tubes with solution EDTA as an anticoagulant, centrifuged at 1500 g for 15 minutes at 4° C.
To estimate the intensity of metabolism of nitrogen oxide in rats, quantitative determination of stable metabolites of nitrogen oxide—nitrites and nitrates NOX^− in the blood plasma, supernatanates of the liver and thymus gland, a study was conducted by a spectrometric method, and in the brain supernatanates by a […] method.
The spectrometric method is based the reaction of nitrites with the Griss reagent (a mixture of 2% solution of sulfanilamide and 0.2% N-(1-naphthyl)ethylene diamine. At the first step the nitrite reacts with sulfanilamide with formation of diazonium salt, and then with the second component to form azo dye with an adsorption maximum at 540 nm. For reduction of nitrates into nitrites, a fermentative method was used with bacterial reductase nitrate (Grisham M. B. et al., 1995). The samples of plasma and supernatant of the liver deproteinizated at 100° C. for 5 minutes incubated for 30 minutes at 37° C. in 50.0 mM of HEPES pH 7.4 in the presence of 0.2 unit/ml of Aspergillus reductase nitrate, 5.0 mkM of FAD and 0.1 mM of NAD-Ph. At the end of the reaction lactate dehydrogenase and pyruvate were added for isolation of NAD-Ph interfering with the Griss reaction. Then the Griss reagent was added and after 10-minute incubation the light absorption of the samples was measured at 540 nm. To amount of NOX^− was calculated using sodium nitrate as a standard.
The fluorometric method is based on calculation of the nitrite level by the intensity fluorescence of 2,3-diaminonaphthotriazole, a product of reaction of 2,3-diaminonaphthalene (DAN) and nitrite in an acidic medium (Misko T. R., Schilling R. J., Salvemini D. et al. “A fluorometric assay for the measurement of nitrite of biological samples”. Anal. Biochem., 1993, v. 214, p. 11-16). The brain supernatants deproteinizated at 100° C. were placed in a nitrite regenerating system containing 0.125 unit/ml of nitrate reductases, 25 mkM NADPh and 25 mkM FAD prepared in a 20-mM Tris-HCl buffer with pH 7.6 and incubated for 30 minutes at 37° C. The lactatedehydrogenase/pyruvate system was used for oxidation of the NADPh. Then 316 mkM of the DAN solution in 0.62 M of hydrochloric acids were added and the mixture was incubated for 10 minutes in darkness.
280 mM of NaOH were added for stabilization of the fluorescence of the formed 2,3-diaminonaphthotriazole. The fluorescence intensity was measured in the spectrofluorimeter Hitachi F-3000 at a wavelength of excitation of 365 nm and an emission of 405 nm. The concentration of NOX^− in the brain was calculated by means of a standard solution of sodium nitrate.

thymus = assay: Morphine abstinence model: thymus condition; type: in vivo, rats; conditions: morphinized rats then compound
Method: The effect of the compounds according to the invention on the condition of the thymus of the rats was also investigated: a control group, an experimental group of morphinized animals and an experimental group of animals were first morphinized and then injected with the compounds according to the invention. The experiment was carried out similarly to that described above.

plasma hemostasis = assay: Partial activated thromboplastin time (PATT) after intravenous administration; type: in vivo, rabbit; conditions: for effect on the PATT (overall): doses 15.0, 30.0, 60.0 mg/kg
Method: The investigations were performed on 72 rabbits of the “Chinchilla” breed with a mass of 2.5±0.3 kg, who were administered which solutions of compounds 2, 15, 21, 37 in doses of 15, 30 and 60 mg/kg intravenously. The experiments included the thrombin-test (series No. 7300) and the coagulability-test (series No. 5000) purchased from the scientific-and-production association (SPA) “Renam”, thromboplastin (series No. 240600) and calcium chloride purchased from the SPA “MedioLab”
The static parameters of the blood and plasma coagulation (partial activated thromboplastin time, thrombin time, maximum coagulation activity (test for auto coagulation) were determined using the Behnk Electronic coagulometer (Germany). The operating principle of this instrument is based on the fact that the formed blood clot breaks the contacts of the pulse counter in the flask-pin circuit, said pin permanently oscillating in a vertical plane. The moment of formation of the clot is registered by stopping the stop watch hand.
The measurements were effected at a constant temperature of 37° C. maintained by a temperature control unit.
Compounds 2, 15, 21, 37 according to the invention at a concentration of 15, 30 and 60 mg/kg were introduced to the above experimental animals intravenously, and their blood samples were taken off 15, 30, 60 and 120 minutes after the administration.
The blood plasma samples deprived of thrombocytes obtained as described above in an amount of 0.1 ml were put in a coagulometer flask and heated for 1 minute at 37° C., then 0.1 ml of 0.277% solution of calcium chloride was added and the blood clotting time was registered. The coagulation time T in seconds of the control plasma and plasma obtained after intravenous administration after 15, 30, 60 and 120 minutes were compared.

Compound	Nitrites in blood plasma, Control + Compound [1] [mkmol/ml]	Nitrites in brain, Cortex of cerebrum, Control + Compound [1]	Nitrites in brain, Hypothalamus, Control + Compound [1]	Nitrites in brain, Mesencephalon, Control + Compound [1]	Nitrites in liver, Control + Compound [1]	Nitrites in blood plasma, Control + Morphine + compound [1] [mkmol/ml]	Nitrites in brain, Cortex of cerebrum, Control + Morphine + compound [1]	T, s after 15 minutes (PATT) (plasma hemostasis; dose 15.0 mg/kg intravenously) [s]	T, s after 30 minutes (PATT) (plasma hemostasis; dose 15.0 mg/kg intravenously) [s]	T, s after 60 minutes (PATT) (plasma hemostasis; dose 15.0 mg/kg intravenously) [s]	T, s after 120 minutes (PATT) (plasma hemostasis; dose 15.0 mg/kg intravenously) [s]	T, s after 15 minutes (PATT) (plasma hemostasis; dose 30.0 mg/kg intravenously) [s]	T, s after 30 minutes (PATT) (plasma hemostasis; dose 30.0 mg/kg intravenously) [s]	T, s after 60 minutes (PATT) (plasma hemostasis; dose 30.0 mg/kg intravenously) [s]	T, s after 120 minutes (PATT) (plasma hemostasis; dose 30.0 mg/kg intravenously) [s]	T, s after 15 minutes (PATT) (plasma hemostasis; dose 60.0 mg/kg intravenously) [s]	T, s after 30 minutes (PATT) (plasma hemostasis; dose 60.0 mg/kg intravenously) [s]	T, s after 60 minutes (PATT) (plasma hemostasis; dose 60.0 mg/kg intravenously) [s]	T, s after 120 minutes (PATT) (plasma hemostasis; dose 60.0 mg/kg intravenously) [s]	effect on the PATT (overall) (plasma hemostasis)	also measured
O=c1[nH][nH]c(=O)c2nccnc12.[Li] [Compound 25, lithium salt of pyrazine[2,3-d]-6H-pyridazine-5,8-dione]	17.10 ± 2.05	4.47 ± 0.43 nmol/mg of protein	6.87 ± 0.80 nmol/mg of protein	6.98 ± 1.02 nmol/mg of protein	0.307 ± 0.012 nmol/mg of protein	16.78 ± 2.11	4.91 ± 0.32 nmol/mg of protein														Nitrites in brain, Hypothalamus, Control + Morphine + compound [1]: 6.67 ± 0.79 nmol/mg of protein; Nitrites in brain, Mesencephalon, Control + Morphine + compound [1]: 5.91 ± 0.74 nmol/mg of protein; Nitrites in liver, Control + Morphine + compound [1]: 0.287 ± 0.01 nmol/mg of protein; Nitrites, thymus Supernatant, Administration of morphine and compound (thymus): 0.396 ± 0.02 nmol/mg of protein; Thymus mass, Administration of morphine and compound (thymus): 218 ± 17 mg
Nc1cccc2c(=O)[nH][nH]c(=O)c12.[Na] [Compound 15, sodium salt of 5-amino-benzo[d]-3H-pyridazine-1,4-dione]	14.39 ± 0.84	4.31 ± 0.37 nmol/mg of protein	6.77 ± 0.83 nmol/mg of protein	6.65 ± 0.70 nmol/mg of protein	0.259 ± 0.019 nmol/mg of protein	13.91 ± 1.91	4.72 ± 0.37 nmol/mg of protein	37.0 ± 0.1	37.0 ± 0.2	36.9 ± 0.1	37.0 ± 0.3	32.9 ± 0.8	32.1 ± 0.1	32.0 ± 0.2	32.0 ± 0.1	32.2 ± 0.1	32.2 ± 0.1	32.1 ± 0.2	32.2 ± 0.1	do not affect the PATT	Nitrites in brain, Hypothalamus, Control + Morphine + compound [1]: 6.57 ± 0.88 nmol/mg of protein; Nitrites in brain, Mesencephalon, Control + Morphine + compound [1]: 5.50 ± 0.43 nmol/mg of protein; Nitrites in liver, Control + Morphine + compound [1]: 0.285 ± 0.02 nmol/mg of protein; Nitrites, thymus Supernatant, Administration of morphine and compound (thymus): 0.383 ± 0.02 nmol/mg of protein; Thymus mass, Administration of morphine and compound (thymus): 214 ± 12 mg
Nc1ccnc2c(=O)n([C@@H]3O[C@H](CO)[C@@H](O)[C@H]3O)[nH]c(=O)c12 [Compound 2, 4-amino-7-(β-D-ribofuranosile)pyrido[2,3-d]-6H-pyridazine-5,8-dione]								37.0 ± 0.1	37.0 ± 0.2	36.9 ± 0.1	37.0 ± 0.3	32.7 ± 0.5	32.0 ± 0.1	32.2 ± 0.1	32.1 ± 0.2	32.3 ± 0.2	32.4 ± 0.1	32.3 ± 0.1	32.4 ± 0.1	do not affect the PATT	
O=c1[nH][nH]c(=O)c2c(Br)ncnc12.[K] [Compound 37, potassium salt of 4-bromine-pyrimido[4,5-D]-6H-pyridazine-5,8-dione]	16.13 ± 1.80	4.36 ± 0.24 nmol/mg of protein	6.79 ± 0.92 nmol/mg of protein	6.84 ± 0.56 nmol/mg of protein	0.262 ± 0.018 nmol/mg of protein	15.33 ± 0.87	4.77 ± 0.28 nmol/mg of protein	37.0 ± 0.2	37.1 ± 0.1	37.0 ± 0.2	36.9 ± 0.1	33.1 ± 0.1	33.3 ± 0.1	33.3 ± 0.2	33.0 ± 0.4	32.5 ± 0.1	32.3 ± 0.2	32.4 ± 0.1	32.6 ± 0.3	do not affect the PATT	Nitrites in brain, Hypothalamus, Control + Morphine + compound [1]: 6.52 ± 0.83 nmol/mg of protein; Nitrites in brain, Mesencephalon, Control + Morphine + compound [1]: 5.63 ± 0.37 nmol/mg of protein; Nitrites in liver, Control + Morphine + compound [1]: 0.274 ± 0.01 nmol/mg of protein; Nitrites, thymus Supernatant, Administration of morphine and compound (thymus): 0.387 ± 0.01 nmol/mg of protein; Thymus mass, Administration of morphine and compound (thymus): 228 ± 15 mg
Nc1cnc2c(=O)n([C@@H]3O[C@H](CO)[C@@H](O)[C@H]3O)[nH]c(=O)c2n1.[Na] [Compound 21, sodium salt of 3-amino-7-(β-D-ribofuranosile)pyrazine[2,3-d]-6H-pyridazine-5,8-dione]								37.1 ± 0.1	37.2 ± 0.1	36.9 ± 0.1	37.0 ± 0.2	32.8 ± 0.4	32.0 ± 0.1	32.2 ± 0.1	32.1 ± 0.1	32.0 ± 0.4	32.1 ± 0.2	32.0 ± 0.1	32.3 ± 0.2	do not affect the PATT	
